Data: publication PMC10447463, “Data-mining unveils structure–property–activity correlation of viral infectivity enhancing self-assembling peptides” (Nature Communications, 2023)
Read-outs that look alike come from different tables or passages of the source.

Experiments:
[1] = Turbidity, derived count rate of scattered light; assay type: physicochemical; settings: for Zeta Count Rate / kcps / Count Rate: derived count rate of scattered light; for Log Count Rate: log of derived count rate; for Count Rate / kcps: derived count rate of scattered light at 633 nm, 173°, from zeta-potential measurement, 0.1 mg/mL in 1 mM KCl after 1 d at 1 mg/mL in PBS, turbidity / microscopic aggregation, mean of triplicate
In short: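 One-day room-temperature aggregation at 1 mg/mL in PBS (pH 7.4) preceded measurement; samples then went into 1 mM KCl. Triplicates per sample, two independent experiments averaged.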

[2] = Zeta-potential measurement; assay type: physicochemical; settings: for Zeta-pot. / mV: zeta potential of peptide, Fig S15 source data; for Zeta-Pot.: zeta potential of peptide assemblies
In short: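 Dissolve peptide from DMSO (10 mg/mL stock) into PBS pH 7.4 to 1 mg/mL. Incubate 1 d, RT. Dilute in 1 mM KCl just before reading. Derive zeta potential from mobility (Smoluchowski).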

TZM-bl cells = assay type: cell-based; settings: CellTiter-Glo, mean of n = 3 replicates; for viability 0.26 µM: peptide 0.26 µM; for viability 1.3 µM: peptide 1.3 µM; for viability 6.5 µM: peptide 6.5 µM
Method: The cell viability after addition of peptides to TZM–bl cells was studied via the CellTiter–Glo assay. To this end, 10,000 cells were seeded and on the next day serial diluted peptides were added. After 3 days the supernatant was removed and 100 µL CellTiter–Glo Reagent 1:1 diluted in PBS was added. After 10 min 50 µL was transferred to white microplate and luminescence was recorded by Orion microplate luminometer.
2. Cell Viability of Representatively Selected Peptides
Figure S 2 Cell Viability normalized to 100% metabolic activity as determined by CellTiterGlo Assay of 57 representatively selected peptides from the library. The selection represents infectivity enhancing and not […]
concentration. Error bars indicate standard deviation from triplicate measurements. Source data for Figure S2 […]
Figure S3 Cell Viability normalized to 100% metabolic activity determined by CellTiterGlo Assay of 20 peptides reported in literature. 33,34,43–48,35–42 Cell viability (> 80%) is maintained for all peptides at 1.3 µM concentration regardless of the preparation method, which is A PNF formation method by dilution of 10 mg/mL peptide stock in DMSO in PBS to 1 mg/mL or B preparation according to literature reported protocol (SI Section 8). Error bars indicate standard deviation from triplicate measurements. Source data for Figure S3 is provided.

[3] = category 1 or 0 derived from the count rate, key not given
[4] = mean, std deviation in next column
[5] = category derived from the zeta potential
[6] = Fig S8 panels A, C, asymmetric log errors
[7] = Log10 of derived count rate of scattered light (turbidity)
[8] = log10 of derived count rate of scattered light (turbidity)
[9] = turbidity, Log10 of derived count rate of scattered light, Figure 3A source data
[10] = zeta-potential of peptide, source data of Figure 2C
[11] = zeta-potential of the peptide assemblies, mean, Figure 3A source data
[12] = category 1 or 0 from count rate, key not given
[13] = mean, std deviation in separate column

| Substance | Zeta Count Rate Category ([1]; category 1/0, no key printed) | Zeta Count Rate Category [1, 3] | Zeta Count Rate / kcps [1, 4] | Zeta category ( +1 = if > 4 mV;-1 = if < -4 mV; 0 = -4mV to 4 mV) [2] | Zeta category ( +1 = if > 4 mV;-1 = if < -4 mV; 0 = -4mV to 4 mV) [2, 5] | Zeta Pot. / mV ([2]; mean, Std Zeta in next column) | Zeta-pot. / mV [2] | Zeta Count Rate Category ([1]; category 1 / 0, no key given) | Zeta Count Rate / kcps [1] | Zeta Pot. / mV [2] | Zeta Count Rate Category [1, 12] | Zeta Count Rate / kcps [1, 13] | Zeta category ( +1 = if > 4 mV;-1 = if < -4 mV; 0 = -4mV to 4 mV) ([2]; category from zeta potential) | Zeta Pot. / mV ([2]; mean, Std in separate column) | also measured |
| --- | --- | --- | --- | --- | --- | --- | --- | --- | --- | --- | --- | --- | --- | --- | --- |
| CEFEFQFNMWQ [TM140] | 1 | 1 | 186.3 kcps | -1 (-1 = if < -4 mV) | -1 (-1 = if < -4 mV) | -34.23 mV | -34.23 mV |  |  |  |  |  |  |  | viability 0.26 µM (TZM-bl cells): 125.8; viability 1.3 µM (TZM-bl cells): 116.7; viability 6.5 µM (TZM-bl cells): 98.23 |
| CHLHLQL [CN9] | 1 |  | 1155 kcps | -1 (-1 = if < -4 mV) |  | -12.27 mV | -12.27 mV |  |  |  |  |  |  |  | Log Count Rate [1, 6]: 3.062; Log Count Rate ([1]; Fig S8 panels B, D): 3.062; Count Rate ([1]; Fig S8 panels B, D, turbidity): 1154.63; viability 0.26 µM (TZM-bl cells): 107.2; viability 1.3 µM (TZM-bl cells): 104.6; viability 6.5 µM (TZM-bl cells): 96.74 |
| CKFKFQFW [TM72] |  | 1 | 29210.5 kcps |  | 1 (+1 = if > 4 mV) | 15.2 mV | 15.2 mV |  |  |  |  |  |  |  | Log Count Rate [1, 6]: 4.466; Log Count Rate ([1]; Fig S8 panels B, D): 4.466; Count Rate ([1]; Fig S8 panels B, D, turbidity): 29210.5; viability 0.26 µM (TZM-bl cells): 91.88; viability 1.3 µM (TZM-bl cells): 85.39; viability 6.5 µM (TZM-bl cells): 82.4 |
| KLKLQLL [TG4 / (KM2)] |  | 0 | 72.67 kcps | -1 (-1 = if < -4 mV) | -1 (-1 = if < -4 mV) | -4.93 mV | -4.93 mV | 0 | 72.67 kcps | -4.93 mV |  |  |  |  |  |
| KLKQLL |  |  |  |  |  |  |  |  |  |  |  |  |  |  | Log10 Count Rate [1, 7]: 2.505; Count Rate / kcps [1]: 320 kcps; Log10 Count Rate [1, 8]: 2.505; Log10 Count Rate [1, 9]: 2.505; Zeta-Pot. [2]: -8.46; Zeta-Potential / mV [2, 10]: -5.682 mV; Zeta-Potential / mV [2, 11]: -8.46 mV |
| KLKQLL [KM27 / psis14] |  | 1 | 319.9 kcps | -1 (-1 = if < -4 mV) | -1 (-1 = if < -4 mV) | -8.46 mV | -8.46 mV | 1 | 319.9 kcps | -8.46 mV |  |  |  |  |  |
| KWKWQW [KB3] | 1 |  | 1545 kcps | 1 (+1 = if > 4 mV) |  | 7.55 mV | 7.55 mV |  |  |  |  |  |  |  | Log Count Rate [1, 6]: 3.189; Log Count Rate ([1]; Fig S8 panels B, D): 3.189; Count Rate ([1]; Fig S8 panels B, D, turbidity): 1544.87 |
| MKIKIQINM [TM41] | 1 |  | 981.3 kcps | 1 (+1 = if > 4 mV) |  | 9.13 mV | 9.13 mV |  |  |  |  |  |  |  |  |
| MKIKIQINMWQ [TM52] | 1 |  | 1475 kcps | 1 (+1 = if > 4 mV) |  | 10.8 mV | 10.8 mV |  |  |  | 1 | 1475 kcps | 1 (+1 = if > 4 mV) | 10.8 mV |  |
| QCKAKAQA [CK24] | 1 |  | 1319.1 kcps | 0 (0 = -4mV to 4 mV) |  | 0.674 mV | 0.674 mV |  |  |  | 1 | 1319.1 kcps | 0 (0 = -4mV to 4 mV) | 0.674 mV | Log Count Rate ([1]; Fig S8 panels B, D): 3.12; Count Rate ([1]; Fig S8 panels B, D, turbidity): 1319.1 |
| QCKFKFQFNM [CK8] | 1 |  | 3669.6 kcps | 1 (+1 = if > 4 mV) |  | 15.7 mV | 15.7 mV |  |  |  | 1 | 3669.6 kcps | 1 (+1 = if > 4 mV) | 15.7 mV |  |
| QCKFKQFF [CK12] |  | 1 | 225.4 kcps | 1 (+1 = if > 4 mV) | 1 (+1 = if > 4 mV) | 4.94 mV | 4.94 mV | 1 | 225.4 kcps | 4.94 mV |  | 225.4 kcps |  | 4.94 mV |  |
| QCKFKQFFNM [CK11] |  | 1 | 10384.7 kcps | 1 (+1 = if > 4 mV) | 1 (+1 = if > 4 mV) | 13.67 mV | 13.67 mV | 1 | 10384.7 kcps | 13.67 mV |  | 10384.7 kcps |  | 13.67 mV |  |
| QCKIKQII [CK6] |  |  | 301 kcps | 1 (+1 = if > 4 mV) |  | 11 mV | 11 mV | 1 | 301 kcps | 11 mV | 1 | 301 kcps | 1 (+1 = if > 4 mV) | 11 mV |  |
| QCKIKQIINM [CK5] |  |  | 20551.06667 kcps | 1 (+1 = if > 4 mV) |  | 10.4 mV | 10.4 mV | 1 | 20551.06667 kcps | 10.4 mV | 1 | 20551.06667 kcps | 1 (+1 = if > 4 mV) | 10.4 mV |  |
| RGDKIKIQI |  |  |  |  |  |  |  |  |  |  |  |  |  |  | Log10 Count Rate [1, 7]: 2.474; Count Rate / kcps [1]: 298 kcps; Log10 Count Rate [1, 8]: 2.474; Log10 Count Rate [1, 9]: 2.474; Zeta-Pot. [2]: -0.899; Zeta-Potential / mV [2, 10]: 2.829 mV; Zeta-Potential / mV [2, 11]: -0.9 mV |
| RGDKIKIQI [MG14] |  |  | 298.1 kcps | 0 (0 = -4mV to 4 mV) |  | -0.899 mV | -0.899 mV |  |  |  | 1 | 298.1 kcps | 0 (0 = -4mV to 4 mV) | -0.899 mV |  |
